Each structure is given as a SMILES string. Entries after “also recorded” stand apart in the source; their conditions may differ.

One series relates to Arabidopsis thaliana. As to conditions: no DAAO; cited from earlier work.
A further series concerns plants that express DAAO. As to conditions: at the level of 30 mM; cited from earlier work.
A further series deals with HSVtk transgene. Briefly: CRISPR editing after agro-injection, decapitation and ganciclovir selection: HSVtk. As to conditions: ganciclovir counter-selection of HSVtk+Cas9 lines, regenerated shoots. The series is classed as in vivo, tomato. On the procedure:
In example two, we decapitated the seedlings at the first internode so that cells that were genome edited could form a callus, regenerate new meristems and stems. The Cas9 expressing mother plants were injected with the viral replicon vector and decapitated at the epicotyl a week later. The decapitation site was covered with parafilm and an aluminum foil cap for 4 weeks. Any axillary buds in the cotyledon node were removed. When a solid callus mass was visible (approx. four weeks after decapitation) at the wound site, the caps were removed and ganciclovir was applied (2 mM concentration of the compound in a carbomer gel). Every meristem that developed into a healthy shoot was detached and propagated to fruiting. Mutation level and type were analyzed by PCR and sequencing of amplicons flanking the target genomic sites. Regenerated stems were evaluated for mutation in the marker and POTATO LEAF (C) sequences and the expected change in leaf shape typical of a C knockout. We evaluated the correlation between the Cas9 modified HSVtk and C.
Agrobacterium glycerol stocks transformed with pTRV or pTAV vectors were streaked onto LB plates containing appropriate antibiotics based on plasmids and agro strains. […] After 24 hours, cultures were measured for OD600 using spectrophotometer. […] The next day, OD600 was measured for each culture. […]

Another series has as its system transgene-free explants. As to conditions: 0.1 mM GAN; cited from earlier work.
Series [1] deals with transgenic Arabidopsis root explants / leaf explants. As to conditions: 0.1 mM GAN; cited from earlier work.
The test system of a further series is transgene-free plants. Briefly: Toxicity of GAN: shoot regeneration of decapitated transgene-free (wildtype) plants. It is filed as in vivo, tomato. As to conditions: for Regeneration of transgene-free plants (control): one month after decapitation. On the procedure:
(§1) Roughly one week later, seedlings were decapitated at the injection site using a sharp razor blade. Immediately after decapitation, parafilm was stretched over the decapitation site, to prevent the stem from drying out, and aluminum foil was added to cover the parafilm, shading the cut site to promote callus formation. Plants were returned to growth chamber and monitored for axillary shoot formation and callus regeneration. New shoots forming from the cotyledon axillary buds were removed using forceps as soon as they were observed.
(§2) After 1-2 weeks, the cut site of the stem began forming a white callus, and selection gel was applied. Carbomer 940 powder was added to a water solution containing selection agents to make 0.5% w/v carbomer gel. The pH was adjusted with KOH to 7.5 to thicken the gel. The gel containing the selecting agents was added to the decapitated plants by putting a droplet of the gel to the wound site of the shoot using spatula, about 40-50 uL in volume. Parafilm and aluminum foil was placed back on the cut site, and plants were returned to growth chamber. […] Parafilm and foil were removed from decapitation sites, and shoots were allowed to grow.
(§3) Solutions of D-amino acids were made from D-valine powder (MP Biomedicals 0210322625) and D/L-isoleucine powder (MP Biomedicals 0210208225). Zirgan (ganciclovir ophthalmic gel) 0.15%, an antiviral eye gel was used in making GAN gel, as well as in direct application on decapitated plants.
(§4) HSVtk (no Cas9) plants were germinated and grown in soil. They were decapitated about three weeks after they were sown. The selecting agent, GAN (Ganciclovir), was applied to the decapitated plants after the decapitation. We made a series of GAN gels with different GAN concentrations: 0.1 mM, 1 mM, and 4.5 mM. The 0.1 mM and 1 mM GAN gel was made by diluting the Zirgan ganciclovir ophthalmic gel (4.5 mM GAN) into 0.2% carbomer gel. The two gels were mixed in a 4 mL plastic vial by shaking. Around […] GAN gel was applied to each plant each time, and the gel application was renewed every three to five days.
(§5) We tested whether the carbomer gel itself would have an influence on plant regeneration. We included a group of wildtype plants that received no treatment, and a group of wildtype plants that received carbomer gel containing no GAN. All plants in both groups, except one plant in the control set, regenerated new shoots. Therefore, we eliminated the possibility of regeneration interference from the gel.
(§6) One month after the decapitation and application of GAN selection, the regeneration of shoots was evaluated. In the control plants with 0 mM GAN treatment, including HSVtk and wildtype plants, almost all the plants regenerated new shoots. […] Thus, we concluded that GAN was toxic to both HSVtk plants and wildtype plants at a concentration higher than 0.1 mM. However, as the GAN concentration increased, HSVtk plants became more sensitive to it than wildtype plants. At a concentration of 4.5 mM, GAN could prevent regeneration of the HSVtk plants, while still allowing some wildtype plants to regenerate. Therefore we decided to use a 2 mM dose as the effective selecting agent in our future experiments.

For the next series, the system named is HSVtk plants. The series is described as follows: Toxicity of GAN: shoot regeneration of decapitated HSVtk plants. The series is classed as in vivo, tomato. As to conditions: for Regeneration of HSVtk plants: one month after decapitation. On the procedure: as §1, §2, §3, §4, §5, §6

Regarding `C[C@@H](N)C(=O)O` [D-alanine], the “influence on plant growth” value with Arabidopsis thaliana is given as “inhibit plant growth even at a low concentration”.
Take `CC[C@@H](C)[C@@H](N)C(=O)O` [D-isoleucine]: in the series with plants that express DAAO, the “effect on plants that express DAAO” value is given as “deleterious effects”. Also, the “influence on plant growth” value with Arabidopsis thaliana is reported as “very little influence on plant growth”.
For the compound `N[C@H](CO)C(=O)O` [D-serine], the “influence on plant growth” value in the series with Arabidopsis thaliana is reported as “inhibit plant growth even at a low concentration”.
With `CC(C)[C@@H](N)C(=O)O` [D-valine], in the series on plants that express DAAO, the “effect on plants that express DAAO” value was “deleterious effects”. In addition, in the series with Arabidopsis thaliana, the “influence on plant growth” value is listed as “very little influence on plant growth”.
Take `Nc1nc(O)c2ncn(COC(CO)CO)c2n1` [GAN, ganciclovir]: in the series with HSVtk transgene, the “escapes at current ganciclovir concentrations” value is reported as approximately 60%. Further, the “regeneration of transgene-free explants” value in the series with transgene-free explants is given as “does not affect”. In series [1], the “shoot regeneration on transgenic root explants or callus formation on leaf explants” value is “significantly reduce”. The “Regeneration of transgene-free plants (plants regenerated out of treated)” value was “(14 out of 15)” with transgene-free plants (0.1 mM GAN); “(8 out of 15)” with transgene-free plants (1 mM GAN); 6 out of 23 and (6 out of 23) in the series on transgene-free plants (4.5 mM GAN). Further, the “Regeneration of transgene-free plants (control)” value is on record as 93% in the series on transgene-free plants (0.1 mM GAN gel), 53% in the series on transgene-free plants (1 mM GAN gel) and 26% in the series on transgene-free plants (4.5 mM GAN gel). The results for the “Regeneration of HSVtk plants (plants regenerated out of treated)” value in the series with HSVtk plants (0.1 mM GAN), with HSVtk plants (1 mM GAN) and with HSVtk plants (4.5 mM GAN) were “(16 out of 18)”, “(4 out of 16)” and “none of the HSVtk plants regenerated; also recorded: (0 out of 10)”, respectively. Besides, the “Regeneration of HSVtk plants” value stood at 89% in the series with HSVtk plants (0.1 mM GAN gel on decapitated plants), 25% in the series with HSVtk plants (1 mM GAN gel on decapitated plants) and 0% in the series on HSVtk plants (4.5 mM GAN gel on decapitated plants). Moreover, the “Concentration at which GAN was toxic to both HSVtk plants and wildtype plants” value in the series on HSVtk plants (decapitated plants, GAN gel, HSVtk and wildtype plants) is “higher than 0.1 mM”.
